Laboratory results as given in ChEMBL document CHEMBL4359853, “Antiproliferative activity of (R)-4'-methylklavuzon on hepatocellular carcinoma cells and EpCAM+/CD133+ cancer stem cells via SIRT1 and Exportin-1 (CRM1) inhibition” (Eur J Med Chem, 2019).
Activity calls are given as the source filed them. The calls are words filed in the database; no cut-off is given here.

Experiments:
[1] = target: Histone deacetylase 1 (Homo sapiens) (UniProt Q13547); experiment: Inhibition of human recombinant HDAC1 using FLUOR DE LYS SIRT1, deacetylase as substrate preincubated for 2 mins followed by substrate addition measured after 1 hr by fluorescence assay
Histone deacetylase 1 (Homo sapiens), sequence (Q13547 whole entry): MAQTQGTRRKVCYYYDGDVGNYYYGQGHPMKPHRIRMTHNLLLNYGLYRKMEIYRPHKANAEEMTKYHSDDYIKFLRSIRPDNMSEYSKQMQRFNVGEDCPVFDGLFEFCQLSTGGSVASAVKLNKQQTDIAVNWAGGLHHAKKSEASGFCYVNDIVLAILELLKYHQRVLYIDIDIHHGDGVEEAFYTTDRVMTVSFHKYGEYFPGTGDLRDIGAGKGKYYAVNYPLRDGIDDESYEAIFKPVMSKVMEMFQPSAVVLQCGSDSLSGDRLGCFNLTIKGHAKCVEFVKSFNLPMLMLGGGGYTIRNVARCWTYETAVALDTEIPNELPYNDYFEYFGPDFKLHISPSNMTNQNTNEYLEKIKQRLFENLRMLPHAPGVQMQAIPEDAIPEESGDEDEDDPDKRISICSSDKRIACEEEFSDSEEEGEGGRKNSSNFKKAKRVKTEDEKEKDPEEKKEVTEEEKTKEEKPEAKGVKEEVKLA

[2] = system: Huh-7; experiment: Induction of apoptosis in human HuH7 negative EpCAM/CD133 cells assessed as change in cell morphology at 0.1 to 10 uM measured after 48 hrs by 2D microscopic analysis; assay type: functional, cell-based
[3] = organism: Homo sapiens; experiment: Inhibition of class 1/2 HDAC in human HuH7 negative EpCAM/CD133 cells nuclear extract at 0.1 to 81 uM after 24 hrs by fluorescence based assay
[4] = system: Huh-7; experiment: Cell cycle arrest in human HuH7 negative EpCAM/CD133 cells assessed as increase in accumulation at G2 phase at 10 uM measured after 48 hrs by propidium iodide staining based flow cytometry analysis; assay type: functional
[5] = system: HepG2; experiment: Cytotoxicity against human HepG2 cells assessed as reduction in cell viability measured after 72 hrs by MTT assay; assay type: functional, cell-based; conditions: HepG2, 72 h
[6] = organism: Homo sapiens; experiment: Inhibition of Sirtuin/HDAC in human HUH7 cells assessed as decrease in enzymatic activity at 0.10 to 5 uM measured after 24 hrs relative to control; assay type: cell-based
[7] = organism: Homo sapiens; experiment: Inhibition of class 1/2 HDAC in human HuH7 EpCAM/CD133 positive cells nuclear extract at 0.1 to 81 uM after 24 hrs by fluorescence based assay
[8] = target: Exportin-1 (Homo sapiens) (UniProt O14980); experiment: Inhibition of CRM1 in human HuH7 cells assessed as accumulation of RIOK2 in nucleus at 0.1 to 10 uM measured after 6 hrs by DAPI staining based confocal microscopy analysis; assay type: cell-based
Exportin-1 (Homo sapiens), sequence (O14980 whole entry): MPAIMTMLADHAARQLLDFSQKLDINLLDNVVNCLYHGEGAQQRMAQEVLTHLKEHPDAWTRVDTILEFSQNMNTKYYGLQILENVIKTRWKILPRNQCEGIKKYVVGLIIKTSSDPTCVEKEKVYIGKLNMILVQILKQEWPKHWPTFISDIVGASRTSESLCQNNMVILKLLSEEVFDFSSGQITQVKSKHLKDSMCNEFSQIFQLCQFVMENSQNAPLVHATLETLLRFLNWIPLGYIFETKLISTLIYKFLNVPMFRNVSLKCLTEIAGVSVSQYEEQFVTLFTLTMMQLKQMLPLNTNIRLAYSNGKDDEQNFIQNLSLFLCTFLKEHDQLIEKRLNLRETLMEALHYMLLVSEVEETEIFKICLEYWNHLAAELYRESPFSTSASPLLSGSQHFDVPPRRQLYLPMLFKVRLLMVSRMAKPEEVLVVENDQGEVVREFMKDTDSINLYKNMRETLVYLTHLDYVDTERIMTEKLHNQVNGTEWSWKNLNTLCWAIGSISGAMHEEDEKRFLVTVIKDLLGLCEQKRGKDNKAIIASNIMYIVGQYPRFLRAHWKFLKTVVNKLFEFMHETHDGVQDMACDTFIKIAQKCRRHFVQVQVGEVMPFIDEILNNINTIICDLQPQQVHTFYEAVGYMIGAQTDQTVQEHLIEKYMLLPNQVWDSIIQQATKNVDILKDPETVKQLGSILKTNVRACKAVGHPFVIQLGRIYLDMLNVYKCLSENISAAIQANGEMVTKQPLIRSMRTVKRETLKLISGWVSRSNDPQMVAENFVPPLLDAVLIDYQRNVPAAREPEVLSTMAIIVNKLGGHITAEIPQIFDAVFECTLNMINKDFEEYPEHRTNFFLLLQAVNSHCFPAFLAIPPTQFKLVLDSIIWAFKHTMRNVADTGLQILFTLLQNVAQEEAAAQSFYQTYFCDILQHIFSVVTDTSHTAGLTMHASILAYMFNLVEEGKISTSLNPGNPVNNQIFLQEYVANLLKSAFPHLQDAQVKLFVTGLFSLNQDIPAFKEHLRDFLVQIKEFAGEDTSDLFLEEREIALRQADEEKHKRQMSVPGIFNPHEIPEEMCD

[9] = system: Huh-7; experiment: Induction of apoptosis in human HuH7 cells assessed as loss of spheroid morphology at 62.5 uM measured after 48 hrs by inverted light microscopy based matrigel assay; assay type: functional, cell-based
[10] = system: Huh-7; experiment: Induction of apoptosis in human HuH7 cells expressing positive EpCAM/CD133 assessed as loss of spheroid morphology at 62.5 uM measured after 48 hrs by inverted light microscopy based matrigel assay; assay type: functional, cell-based
[11] = system: Huh-7; experiment: Upregulation of p27 expression in human HuH7 cells at 1 to 3 uM measured after 24 to 72 hrs by SYBR-green based qPCR analysis; assay type: functional, cell-based
[12] = system: Huh-7; experiment: Upregulation of SIRT1 in human HuH7 cells assessed as fold change at 5 uM measured after 24 hrs by ELISA relative to control; assay type: functional
[13] = target: Exportin-1 (Homo sapiens) (UniProt O14980); experiment: Inhibition of CRM1 in human HepG2 cells assessed as accumulation of RIOK2 in nucleus at 0.1 to 10 uM measured after 6 hrs by DAPI staining based confocal microscopy analysis; assay type: cell-based
[14] = system: Huh-7; experiment: Cytotoxicity against human HuH7 cells assessed as reduction in cell viability measured after 24 hrs by MTT assay; assay type: functional, cell-based; conditions: Huh-7, 24 h
[15] = system: Huh-7; experiment: Upregulation of p21 expression in human HuH7 cells at 1 to 3 uM measured after 24 to 72 hrs by SYBR-green based qPCR analysis; assay type: functional, cell-based
[16] = system: Huh-7; experiment: Cell cycle arrest in human HuH7 positive EpCAM/CD133 cells assessed as increase in accumulation at G1 phase at 1 to 1.25 uM measured after 48 hrs by propidium iodide staining based flow cytometry analysis; assay type: functional
[17] = system: HepG2; experiment: Induction of apoptosis in human 3D HepG2 spheroids at 10 uM measured after 24 hrs by propidium iodide staining based immunofluorescence microscopy analysis; assay type: functional, cell-based
[18] = system: Huh-7; experiment: Induction of reactive oxygen species generation in human HuH7 cells at 1 uM measured after 24 hrs by DCFDA staining assay; assay type: functional, cell-based
[19] = system: Huh-7; experiment: Cytotoxicity against human HuH7 cells expressing positive EpCAM/CD133 assessed as reduction in cell viability measured after 72 hrs by MTT assay; assay type: functional, cell-based; conditions: Huh-7, 72 h
[20] = system: Huh-7; experiment: Induction of apoptosis in human HuH7 positive EpCAM/CD133 cells measured after 48 hrs by Annexin V-FITC/propidium iodide staining based flow cytometry analysis; assay type: functional, cell-based
[21] = target: Exportin-1 (Homo sapiens) (UniProt O14980); experiment: Inhibition of CRM1 in human HuH7 cells assessed as accumulation of RIOK2 in nucleus at 1 and 10 uM measured after 24 hrs by DAPI staining based confocal microscopy analysis; assay type: cell-based
[22] = system: Huh-7; experiment: Cell cycle arrest in human HuH7 negative EpCAM/CD133 cells assessed as increase in accumulation at G1 phase at 10 uM measured after 48 hrs by propidium iodide staining based flow cytometry analysis; assay type: functional
[23] = target: Exportin-1 (Homo sapiens) (UniProt O14980); experiment: Inhibition of CRM1 in human HepG2 cells assessed as upregulation of p53 by measuring accumulation in nucleus at 0.1 to 10 uM measured after 6 to 24 hrs by DAPI staining based immunofluorescence microscopy analysis; assay type: cell-based
[24] = system: Huh-7; experiment: Cytotoxicity against human HuH7 cells assessed as effect on SIRT1 protein level at 5 uM measured after 24 hrs by ELISA; assay type: functional, cell-based
[25] = system: Huh-7; experiment: Upregulation of SIRT1 in human HuH7 cells assessed as fold change at 3 uM measured after 24 hrs by ELISA relative to control; assay type: functional
[26] = system: Huh-7; experiment: Cytotoxicity against human HuH7 cells expressing positive EpCAM/CD133 assessed as reduction in cell viability measured after 48 hrs by MTT assay; assay type: functional, cell-based; conditions: Huh-7, 48 h
[27] = target: Exportin-1 (Homo sapiens) (UniProt O14980); experiment: Inhibition of CRM1 in human HuH7 cells assessed as upregulation of p53 by measuring accumulation in nucleus at 0.1 to 10 uM measured after 24 to 48 hrs by DAPI staining based immunofluorescence microscopy analysis; assay type: cell-based
[28] = system: Huh-7; experiment: Cell cycle arrest in human HuH7 cells assessed as increase in accumulation at G1 phase at 1 to 1.25 uM measured after 48 hrs by propidium iodide staining based flow cytometry analysis; assay type: functional
[29] = target: Histone-lysine N-methyltransferase EZH2 (Homo sapiens) (UniProt Q15910); experiment: Activation of EZH2 in human HuH7 cells assessed as upregulation of H3K27me3 expression measured after 4 hrs by Western blot analysis; assay type: cell-based
Histone-lysine N-methyltransferase EZH2 (Homo sapiens), sequence (Q15910 whole entry, looked up): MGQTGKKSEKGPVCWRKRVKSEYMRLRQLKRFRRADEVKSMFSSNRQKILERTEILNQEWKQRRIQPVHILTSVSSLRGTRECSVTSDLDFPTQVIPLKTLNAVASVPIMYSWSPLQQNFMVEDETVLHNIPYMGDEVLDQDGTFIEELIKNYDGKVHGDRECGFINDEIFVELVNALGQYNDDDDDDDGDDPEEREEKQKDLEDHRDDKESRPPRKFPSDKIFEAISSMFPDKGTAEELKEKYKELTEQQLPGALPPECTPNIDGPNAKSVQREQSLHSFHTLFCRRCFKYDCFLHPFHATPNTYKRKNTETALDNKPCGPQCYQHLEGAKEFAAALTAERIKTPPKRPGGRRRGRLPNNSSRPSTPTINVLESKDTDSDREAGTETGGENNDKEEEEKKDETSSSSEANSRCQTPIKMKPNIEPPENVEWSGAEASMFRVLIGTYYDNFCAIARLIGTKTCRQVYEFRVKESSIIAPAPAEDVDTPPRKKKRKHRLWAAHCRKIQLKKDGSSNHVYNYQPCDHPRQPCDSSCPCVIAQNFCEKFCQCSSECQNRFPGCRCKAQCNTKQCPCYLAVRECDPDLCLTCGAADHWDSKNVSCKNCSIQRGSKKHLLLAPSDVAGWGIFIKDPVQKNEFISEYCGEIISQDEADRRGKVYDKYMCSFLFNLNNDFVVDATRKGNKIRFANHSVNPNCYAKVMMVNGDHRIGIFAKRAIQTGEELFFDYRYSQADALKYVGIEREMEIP

inhibition [1]: inactive
Activity [3]: inactive
inhibition [7]: inactive
inhibition [8]: Active
inhibition [13]: Active
inhibition [21]: Active
inhibition [23]: Active
inhibition [27]: Active
Activity [29]: Active
Structure (SMILES): Cc1ccc([C@H]2CC=CC(=O)O2)c2ccccc12
Activity [2]: Active
Activity [4]: Active
IC50 [5]: 100 nM
inhibition [6]: 35 to 40%
Activity [9]: Active
Activity [10]: Active
Activity [11]: Active
fold change (FC) [12]: 2
IC50 [14]: 10000 nM
Activity [15]: Active
Activity [16]: Active
Activity [17]: Active
Activity [18]: Active
IC50 [19]: 1250 nM
Activity [20]: Dose-dependent effect
Activity [22]: Active
Activity [24]: Active
fold change (FC) [25]: 3.9
IC50 [26]: 2500 nM
Activity [28]: Active
